Measured values published in patent EP0385381A2, “Inhibitor of restenosis after percutaneous transluminal coronary angioplasty” (DAIICHI PHARMACEUTICAL CO., LTD., priority 1989, dated 1990).
Counter-ions that a name gives are not always drawn.

System: post-PTCA restenosis
Assay: Clinical study of inhibition of post-PTCA restenosis, evaluated from coronary angiographic findings
Assay type: in vivo, patients with angina pectoris
Description: In 18 patients with angina pectoris in whom elective PTCA was indicated, 6-(1-imidazolylmethyl)- 5,6,7,8-tetrahydronaphthalene-2-carboxylic acid hydrochloride hemihydrate (hereinafter, referred to as Compound A) was administered orally in a dose of 200 mg three times a day after each meal (600 mg/day) pre-angioplasty, beginning about three days before PTCA, and post angioplasty for 3 months (treated group). Coronary angiography was performed before, immediately after, and 3 months after PTCA. Based on the coronary angiographic findings, inhibition of restenosis of the right coronary artery, left anterior descending artery and left circumflex artery was evaluated, by site of lesion, according to the criteria in Table 1 shown below. Further, based on the results of the evaluation, overall efficacy evaluation by individual patient was made.
In regard to luminal diameter: • 1. Excellent post-angioplasty course: unchanged or expanded • 2. Good post-angioplasty course: a decrease in luminal diameter of less than 50% • 3. Poor post-angioplasty course: a decrease in luminal diameter of 50% or more and less than 100% • 4. Worse post-angioplasty course: a decrease in luminal diameter of 100% or progression of stenosis as compared with pre-PTCA condition
As controls (control group), placebo was similarly administered to 15 patients with angina pectoris in whom effective PTCA was indicated and coronary angiography was performed before and after PTCA.
In both of the treated and control groups, calcium antagonists, viz. nifedipine and diltiazem, antianginal drugs, viz. ISDN and nicorandil, and antiarteriosclerotic agents, viz. elastase, etc. were used concurrently as necessary as shown in Table 2 below. However, there was no significant difference (χ² test) between the two groups in the use of concomitant drugs, as in other patient characteristics.

[1] = Left Anterior Descending Artery, number of lesions rated (of 9), 600 mg/day oral, 3 months after PTCA
[2] = Left Circumflex Artery, number of lesions rated (of 11), 600 mg/day oral, 3 months after PTCA
[3] = Right Coronary Artery, number of lesions rated (of 8), 600 mg/day oral, 3 months after PTCA
[4] = Total, number of lesions rated (of 28), Wilcoxon test P=0.100 vs control group
[5] = number of patients rated (of 18), Wilcoxon test P=0.010 vs control group

With `O=C(O)c1ccc2c(c1)CCC(Cn1ccnc1)C2` (stereo not drawn) [Compound A, 6-(1-imidazolylmethyl)-5,6,7,8-tetrahydronaphthalene-2-carboxylic acid hydrochloride hemihydrate] the “Overall Efficacy Evaluation, by Individual Patient: Excellent, Cumulative %” value (18 patients) was “(38.9%)”, the “Overall Efficacy Evaluation, by Individual Patient: Good, Cumulative %” value (18 patients, Excellent plus Good) was “(77.8%)” and the “Evaluation of coronary angiographic findings by site of lesion: Excellent” value [1] was 4. The “Evaluation of coronary angiographic findings by site of lesion: Good” value [1] was 3, the “Evaluation of coronary angiographic findings by site of lesion: Poor” value (shortened to “Evaluation … of lesion: Poor”) [1] was 1 and the “Evaluation of coronary angiographic findings by site of lesion: Worse” value (“Evaluation … of lesion: Worse” for short) [1] was 1. The “Evaluation of coronary angiographic findings by site of lesion: Excellent” value [2] was 2, the “Evaluation of coronary angiographic findings by site of lesion: Good” value [2] was 7 and the “Evaluation … of lesion: Poor” value [2] was 1. The “Evaluation … of lesion: Worse” value [2] was 1, the “Evaluation of coronary angiographic findings by site of lesion: Excellent” value [3] was 3 and the “Evaluation of coronary angiographic findings by site of lesion: Good” value [3] was 4. The “Evaluation … of lesion: Poor” value [3] was 0, the “Evaluation … of lesion: Worse” value [3] was 1 and the “Evaluation of coronary angiographic findings by site of lesion: Excellent, Cumulative %” value (Total of 28 lesions) was “(32.1%)”. The “Evaluation of coronary angiographic findings by site of lesion: Good, Cumulative %” value (Total of 28 lesions, Excellent plus Good) was “(83.1%)”, the “Evaluation of coronary angiographic findings by site of lesion: Excellent” value [4] was 9 and the “Evaluation of coronary angiographic findings by site of lesion: Good” value [4] was 14. For the same molecule, the “Evaluation … of lesion: Poor” value [4] was 2, the “Evaluation … of lesion: Worse” value [4] was 3 and the “Overall Efficacy Evaluation, by Individual Patient: Excellent” value (number of patients rated (of 18), Wilcoxon test P=0.010, Fisher test (excellent ratings) P=0.009 vs control group) was 7. For the same molecule, the “Overall Efficacy Evaluation, by Individual Patient: Good” value [5] was 7, the “Overall Efficacy Evaluation, by Individual Patient: Poor” value [5] was 3 and the “Overall Efficacy Evaluation, by Individual Patient: Worse” value [5] was 1.
